Measured values taken from patent publication US6630488B1, “Quinolizinones as integrin inhibitors” (Biochem Pharma, Inc., priority 1998, dated 2003).
Where a name gives a salt, the structure may show the parent alone.

Columns and labels:
[1] = system: Chick Chorioallantoic Membrane (CAM) capillary formation; test: Chick chorioallantoic membrane (CAM) mesh assay; assay type: in vivo, chicken; conditions: Day 12, 24 hr treatment
Description: Fertilized white leghorn chicken eggs (SPAFAS Inc., Norwich, Conn.) were received at day 0 and incubated for 3 days at 37 C with constant humidity. On day 3, eggs were rinsed with 70% ethanol and opened into 100 mm^2 tissue culture coated Petri dishes under aseptic conditions. The embryos were then returned to a humidified 38 C incubator for 7-9 additional days.
Vitrogen (Collagen Biomaterials, Palo Alto, Calif.) at a final concentration of 0.73 mg/ml and Matrigel (Becton Dickinson, Bedford, Mass.) at a final concentration of 10 mg/ml was directly pipetted onto Nylon meshes with 250 μm^2 openings which were cut into 4 mm×4 mm squares and autoclaved. Polymerization of meshes were under aseptic conditions, on bacteriological Petri dishes. The polymerization conditions for each substrate were identical; after mixing with or without […] of VPF/VEGF165 (Peprotech, Rocky Hill, N.J.) and/or compounds of interest, 40 μl were pipetted onto each mesh in a bacteriological Petri dish.
The Petri dish was placed in a humidified 37 C incubator with 5% CO2 for 30 minutes to allow polymerization followed by an incubation at 4 C for 2 hours.
In a tissue culture enclosure, meshes were placed onto the periphery of the CAM of a day 12-14 embryo, excluding areas containing major vessels. The embryos were then returned to the humidified 38 C incubator with 3% CO2 for 24 to 48 additional hours.
Embryos were removed from the incubator and meshes were viewed under a dissecting microscope for gross evaluation. Injection of 400 μl FITC dextran, MW 2,000,000 (Sigma, St. Louis, Mo.) through glass microcapillary tubes by infusion into the umbilical vein was performed at a rate of 200 μl per minute. The FITC dextran was allowed to circulate for 5 minutes and 3.7% formaldehyde in PBS was applied directly on each mesh. The embryos were then incubated at 4 C for 5 minutes and the meshes were dissected off the CAM and fixed in 3.7% formaldehyde for 10 minutes to overnight.
After fixation, meshes were mounted on slides with 90% glycerol in PBS and visualized on an inverted fluorescence microscope. A Nikon Diaphot with a Sony DXC-151A camera attached to the side port was used for capture of images and analysis was with the NIH Image 1.61 software program. For each mesh, 5 random staggered images (approximately 600 μm each) were captured. The areas of high intensity were highlighted and measured. Results are expressed as ability to suppress capillary formation after subtraction from negative control. Values were calculated as i inhibition, considering 100% the capillary density achieved by VPF in the presence of vitrogen alone minus the background levels in the absence of VPF. Negative values indicate angiogenic stimulation above the VPF positive control.

[2] = molecular target: T1, placental αvβ3 (Homo sapiens, UniProt P05106+P06756); test: Fibrinogen binding to immobilized αvβ3; conditions: biotinylated-fibrinogen 10 nM, immobilized placental αvβ3; read-out: IC50 values for the fibrinogen binding assay αvβ3
T1 construct: purified active GP IIb-IIIa (Calbiochem) or olacental αvβ3 at 0.5 μg/ml; from tissue; host or cells: placenta
Description: (§1) Nonbound fibrinogen was removed by five washes with binding buffer. Avidin conjugated to alkaline phosphatase (Sigma), diluted in binding buffer, was added and incubated for two hours at 37° C. The plates were washed five times with binding buffer, and after addition of the substrate PNPP (Pierce), the enzyme activity was measured by the absorbance at 405 nm.

[3] = molecular target: T2, GP IIb-IIIa (αIIbβ3) (Homo sapiens, UniProt P05106+P08514); test: Fibrinogen binding to immobilized GP IIb-IIIa (αIIbβ3); conditions: biotinylated-fibrinogen 10 nM, immobilized GP IIb-IIIa; read-out: IC50 values for the fibrinogen binding assay αIIbβ3
T2 construct: purchased Calbiochem
Description: as §1

T2 sequence (P08514 32-887 limits assumed): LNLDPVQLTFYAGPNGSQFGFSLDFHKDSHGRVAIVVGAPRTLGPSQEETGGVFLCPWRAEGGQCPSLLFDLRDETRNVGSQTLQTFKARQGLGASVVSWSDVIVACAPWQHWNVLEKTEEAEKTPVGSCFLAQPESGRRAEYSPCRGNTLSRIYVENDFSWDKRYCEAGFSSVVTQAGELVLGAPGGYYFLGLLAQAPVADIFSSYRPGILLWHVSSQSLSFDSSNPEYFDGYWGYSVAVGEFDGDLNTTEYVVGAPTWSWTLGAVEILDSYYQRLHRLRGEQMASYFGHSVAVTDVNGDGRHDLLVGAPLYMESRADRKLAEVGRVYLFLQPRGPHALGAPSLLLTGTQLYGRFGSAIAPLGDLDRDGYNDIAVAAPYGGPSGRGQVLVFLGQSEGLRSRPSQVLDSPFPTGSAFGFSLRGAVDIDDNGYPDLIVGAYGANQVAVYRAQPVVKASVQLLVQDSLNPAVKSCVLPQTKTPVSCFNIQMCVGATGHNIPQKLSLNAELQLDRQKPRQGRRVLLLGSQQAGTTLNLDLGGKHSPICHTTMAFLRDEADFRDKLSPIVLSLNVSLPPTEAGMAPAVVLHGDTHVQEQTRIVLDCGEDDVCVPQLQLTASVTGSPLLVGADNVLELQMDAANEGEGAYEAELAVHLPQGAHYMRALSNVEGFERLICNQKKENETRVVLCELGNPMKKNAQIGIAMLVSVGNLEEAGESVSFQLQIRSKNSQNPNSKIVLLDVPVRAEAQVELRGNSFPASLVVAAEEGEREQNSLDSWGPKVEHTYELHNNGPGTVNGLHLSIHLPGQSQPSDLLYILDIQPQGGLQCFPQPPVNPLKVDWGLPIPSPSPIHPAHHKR
T2 sequence (P08514 891-1039 partner limits assumed): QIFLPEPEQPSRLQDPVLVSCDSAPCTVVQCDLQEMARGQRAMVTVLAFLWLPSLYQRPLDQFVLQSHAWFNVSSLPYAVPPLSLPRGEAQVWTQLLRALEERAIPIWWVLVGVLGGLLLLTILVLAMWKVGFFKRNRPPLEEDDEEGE
T2 sequence (P05106 27-788): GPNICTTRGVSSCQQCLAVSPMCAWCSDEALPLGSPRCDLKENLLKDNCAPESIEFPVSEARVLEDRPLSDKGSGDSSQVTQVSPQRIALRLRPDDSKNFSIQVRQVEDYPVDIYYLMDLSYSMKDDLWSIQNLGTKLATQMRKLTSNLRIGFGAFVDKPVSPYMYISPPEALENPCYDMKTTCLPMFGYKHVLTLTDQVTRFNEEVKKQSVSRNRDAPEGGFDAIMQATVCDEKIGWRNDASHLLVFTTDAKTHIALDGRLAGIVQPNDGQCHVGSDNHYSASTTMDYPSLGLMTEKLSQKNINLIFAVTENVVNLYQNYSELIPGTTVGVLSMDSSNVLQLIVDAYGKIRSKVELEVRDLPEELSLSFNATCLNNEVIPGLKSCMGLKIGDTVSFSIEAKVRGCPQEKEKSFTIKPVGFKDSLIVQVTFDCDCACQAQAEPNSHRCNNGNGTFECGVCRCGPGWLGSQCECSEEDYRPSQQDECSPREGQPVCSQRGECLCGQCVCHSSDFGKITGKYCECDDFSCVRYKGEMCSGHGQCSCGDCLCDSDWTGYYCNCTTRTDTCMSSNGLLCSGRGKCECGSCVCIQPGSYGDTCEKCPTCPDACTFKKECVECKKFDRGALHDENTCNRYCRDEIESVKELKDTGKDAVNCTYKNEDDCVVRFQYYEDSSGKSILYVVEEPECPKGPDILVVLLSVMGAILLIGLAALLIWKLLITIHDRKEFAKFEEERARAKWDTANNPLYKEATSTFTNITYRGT
T1 sequence (P06756 31-889 limits assumed): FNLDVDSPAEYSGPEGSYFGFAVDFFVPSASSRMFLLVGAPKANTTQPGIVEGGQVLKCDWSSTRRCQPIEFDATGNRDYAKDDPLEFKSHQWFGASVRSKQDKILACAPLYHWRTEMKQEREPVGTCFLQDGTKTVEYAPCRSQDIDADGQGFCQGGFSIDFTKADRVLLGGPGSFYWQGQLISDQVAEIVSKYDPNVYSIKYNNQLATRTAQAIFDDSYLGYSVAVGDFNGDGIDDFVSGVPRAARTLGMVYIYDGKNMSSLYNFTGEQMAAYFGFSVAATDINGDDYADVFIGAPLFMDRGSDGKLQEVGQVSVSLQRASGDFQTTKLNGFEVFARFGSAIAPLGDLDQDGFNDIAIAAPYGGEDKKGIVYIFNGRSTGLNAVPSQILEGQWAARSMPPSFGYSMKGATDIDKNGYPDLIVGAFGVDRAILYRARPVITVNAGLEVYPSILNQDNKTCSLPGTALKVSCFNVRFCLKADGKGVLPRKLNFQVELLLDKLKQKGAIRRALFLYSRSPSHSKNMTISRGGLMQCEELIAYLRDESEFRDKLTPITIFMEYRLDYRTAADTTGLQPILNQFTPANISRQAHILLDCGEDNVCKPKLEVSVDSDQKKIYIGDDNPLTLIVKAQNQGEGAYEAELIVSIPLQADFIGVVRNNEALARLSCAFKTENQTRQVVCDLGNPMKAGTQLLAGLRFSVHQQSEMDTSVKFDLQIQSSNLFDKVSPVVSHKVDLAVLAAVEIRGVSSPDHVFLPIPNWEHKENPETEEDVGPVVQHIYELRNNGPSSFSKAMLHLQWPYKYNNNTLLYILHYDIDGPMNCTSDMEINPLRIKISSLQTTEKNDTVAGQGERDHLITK
T1 sequence (P06756 891-1048 partner limits assumed): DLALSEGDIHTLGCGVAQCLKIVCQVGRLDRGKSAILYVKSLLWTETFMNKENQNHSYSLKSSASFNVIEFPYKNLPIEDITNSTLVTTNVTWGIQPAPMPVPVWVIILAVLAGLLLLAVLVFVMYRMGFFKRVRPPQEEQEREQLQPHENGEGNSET
T1 sequence (P05106 27-788): as the sequence (P05106 27-788) above

Row | Structure (SMILES) | IC50 [2] [µM] | IC50 [3] [µM] | further results
1 | NCCCOc1ccc2ccc(C(=O)N[C@H]3CCCC[C@@H]3C(=O)O)c(=O)n2c1.O=C(O)C(F)(F)F (racemic) [Compound V, (+/−)(trans)-2-{[7-(3-Amino-propoxy)-4-oxo-4H-quinolizine-3-carbonyl]-amino}-cyclohexanecarboxylic Acid Trifluoroacetic Acid Salt] | > 100 | 96 | CAM inhibition of capillary formation ([1]; 3 μg/mesh, +VPF): 7%; CAM inhibition of capillary formation ([1]; 3 μg/mesh, −VPF): 1%; CAM inhibition of capillary formation ([1]; 17 μg/mesh, +VPF): 9%; CAM inhibition of capillary formation ([1]; 17 μg/mesh, −VPF): 8%; CAM inhibition of capillary formation ([1]; 33 μg/mesh, +VPF): 20%; CAM inhibition of capillary formation ([1]; 33 μg/mesh, −VPF): 15%
2 | N=C(N)N1CCN(c2ccn3c(=O)c(C(=O)NC(CC(=O)O)c4ccccc4)ccc3c2)CC1.O=C(O)C(F)(F)F (racemic) [Compound XL, (+/−)-3-{[8-(4-Carbamimidoyl-piperazin-1-yl)-4-oxo-4H-quinolizine-3-carbonyl]-amino}-3-phenyl-propionic Acid Trifluoroacetic Acid Salt] | 1.9 | – | CAM inhibition of capillary formation ([1]; 3 μg/mesh, +VPF): −2%; CAM inhibition of capillary formation ([1]; 3 μg/mesh, −VPF): 4%; CAM inhibition of capillary formation ([1]; 17 μg/mesh, +VPF): 7%; CAM inhibition of capillary formation ([1]; 17 μg/mesh, −VPF): 10%; CAM inhibition of capillary formation ([1]; 33 μg/mesh, +VPF): 11%; CAM inhibition of capillary formation ([1]; 33 μg/mesh, −VPF): 9%
3 | N=C(N)NCCCOc1ccc2ccc(C(=O)NC[C@H](NS(=O)(=O)c3ccccc3)C(=O)O)c(=O)n2c1 [Compound IV, (S)-2-Benzenesulfonylamino-3-{[7-(3-guanidino-propoxy)-4-oxo-4H-quinolizine-3-carbonyl]-amino}-propionic Acid Hydrochloride] | 8.7 | 0.033 | –
4 | NCCNc1ccn2c(=O)c(C(=O)NC(CC(=O)O)c3ccccc3)ccc2c1 (racemic) [Compound XXXVI, (+/−)-3-{[8-(2-Amino-ethylamino)-4-oxo-4H-quinolizine-3-carbonyl]-amino}-3-phenyl-propionic Acid] | 19 | 10 | –
5 | N=C(N)NCCCCOc1ccn2c(=O)cc(C(=O)NC[C@H](NS(=O)(=O)c3ccccc3)C(=O)O)cc2c1 [Compound XXXIII, (S)-2-Benzenesulfonylamino-3-{[8-(4-guanidino-butoxy)-4-oxo-4H-quinolizine-2-carbonyl]-amino}-propionic Acid Hydrochloride] | 15 | 0.044 | –
6 | N=C(N)SCCNc1ccn2c(=O)c(C(=O)NC(CC(=O)O)c3ccccc3)ccc2c1 (racemic) [Compound XXXVII, (+/−)-3-{[8-(2-Carbamimidoylsulfanyl-ethylamino)-4-oxo-4H-quinolizine-3-carbonyl]-amino}-3-phenyl-propionic Acid Trifluoroacetic Acid Salt] | 8.2 | 0.17 | –
7 | O=C(NCc1ccccc1)NCc1ccc2cc(C(=O)NC[C@H](NS(=O)(=O)c3ccccc3)C(=O)O)cc(=O)n2c1 [Compound XLVII, (S)-2-Benzenesulfonylamino-3-{[7-(3-benzyl-ureidomethyl)-4-oxo-4H-quinolizine-2-carbonyl]-amino}-propionic acid] | 0.006 | 4.85 | –
8 | NCCCCCOc1ccc2ccc(C(=O)NC[C@H](NS(=O)(=O)c3ccccc3)C(=O)O)c(=O)n2c1 [Compound I, (S)-2-Benzenesulfonylamino-3-{[7-(5-aminopentyloxy)-4-oxo-4H-quinolizine-3-carbonyl]-amino}-propionic Acid TFA Salt] | 44 | 0.058 | –
9 | CN(CCN(C)c1ccn2c(=O)c(C(=O)NC(CC(=O)O)c3ccccc3)ccc2c1)C(=N)N (racemic) [Compound XXXIX, (+/−)-3-[(8-{Methyl-[2-(N-methyl-guanidino)-ethyl]-amino}-4-oxo-4H-quinolizine-3-carbonyl)-amino]-3-phenyl-propionic Acid Trifluoroacetic Acid Salt] | 21 | 0.063 | –
10 | N=C(N)NCCCOc1ccc2ccc(NC(=O)NC[C@H](NS(=O)(=O)c3ccccc3)C(=O)O)c(=O)n2c1 [Compound IX, (S)-2-Benzenesulfonylamino-3-{3-[7-(3-guanidino-propoxy)-4-oxo-4H-quinolizin-3-yl]-ureido}-propionic Acid Trifluoroacetate Salt] | 1.3 | 0.0096 | –
11 | O=C(O)CC(NC(=O)c1ccc2ccc(OCCCNC(=O)OCc3ccccc3)cn2c1=O)c1ccccc1 (racemic) [Compound XI, (+/−)-3-{[7-(3-Benzyloxycarbonylamino-propoxy)-4-oxo-4H-quinolizine-3-carbonyl]-amino}-3-phenyl-propionic Acid] | 20 | 20 | –
12 | N=C(N)NCCCOc1ccc2cc(C(=O)NCC(Nc3ncccn3)C(=O)O)cc(=O)n2c1 (stereo not drawn) [Compound XXII, 3-{[7-(3-Guanidino-propoxy)-4-oxo-4H-quinolizine-2-carbonyl]-amino}-2-(pyrimidin-2-ylamino)-propionic Acid Hydrochloride] | 0.54 | 0.045 | –
13 | O=C(NC[C@H](NS(=O)(=O)c1ccccc1)C(=O)O)Nc1ccc2ccc(OCCCNC(=O)OCc3ccccc3)cn2c1=O [Compound VI, (S)-2-Benzenesulfonylamino-3-{3-[7-(3-benzyloxycarbonylamino-propoxy)-4-oxo-4H-quinolizine-3-yl]-ureido}-propionic Acid] | > 100 | 1.8 | –
14 | N=C(N)NCc1ccc2cc(C(=O)NCC(Nc3ncccn3)C(=O)O)cc(=O)n2c1 (racemic) [Compound XLIV, (+/−)-3-[(7-guanidinomethyl-4-oxo-4H-quinolizine-2-carbonyl)-amino]-2-(pyrimidin-2-ylamino)-propionic acid bis-trifluoroacetic acid salt] | 0.03 | 6 | –
15 | NCCCOc1ccc2cc(C(=O)NCCC(=O)O)cc(=O)n2c1 [Compound XVI, 3-{[7-(3-Amino-propoxy)-4-oxo-4H-quinolizine-2-carbonyl]-amino}-propionic Acid Trifluoroacetic Acid Salt] | > 100 | 1.5 | –
16 | N=C(N)NCCCCCOc1ccc2ccc(C(=O)NC[C@H](NS(=O)(=O)c3ccccc3)C(=O)O)c(=O)n2c1 [Compound II, (S)-2-Benzenesulfonylamino-3-{[7-(5-guanidino-pentyloxy)-4-oxo-4H-quinolizine-3-carbonyl]-amino}-propionic Acid Hydrochloride] | 24 | 3.9 | –
17 | N=C(N)NCCCOc1ccn2c(=O)cc(C(=O)NC[C@H](NS(=O)(=O)c3ccccc3)C(=O)O)cc2c1 [Compound XXXI, (S)-2-Benzenesulfonylamino-3-{[8-(3-guanidino-propoxy)-4-oxo-4H-quinolizine-2-carbonyl]-amino)-propionic Acid Hydrochloride] | 9.4 | 0.024 | –
